{"source": "patent US20110196383A1", "about": "“Atherosclerotic Plaque Dissolution Composition” (Atherolysis Medical, Inc, priority 2009, published 2011)", "tested_on": "atherosclerotic plaque of an atherosclerotic cadaveric superficial femoral artery", "assay": "ex vivo dissolution of atherosclerotic plaque in cadaveric superficial femoral artery", "set-up": "species or system human", "conditions": "for dissolution of atherosclerotic plaque: exposure about ten minutes to about thirty minutes", "key": {"[1]": {"conditions": "about 98% by weight in the chemical composition, about 2% base composition"}, "[2]": {"conditions": "about 90% by weight, about 10% base composition"}, "[3]": {"conditions": "about 2.5% by weight, about 97% base composition"}, "[4]": {"conditions": "about 20% by weight, about 80% base composition such as normal saline"}, "[5]": {"conditions": "about 99.9% by weight in the chemical composition, about 0.1% base composition"}}, "note": "“Also recorded” adds a separate entry of the source."}
{"compound": "2-octane [Example 2-octane]", "values": [{"measurement": "dissolution of atherosclerotic plaque", "setting": "[1]", "value": "showed effectiveness in dissolving atherosclerotic plaque; also recorded: dissolution of atherosclerotic plaque was noted"}]}
{"compound": "CC(=O)O", "note": "[acetic acid]", "values": [{"measurement": "dissolution of atherosclerotic plaque", "setting": "about 50% by weight, about 50% base composition", "value": "dissolution of atherosclerotic plaque was noted"}]}
{"compound": "CC(=O)Oc1ccccc1C(=O)O", "note": "[acetylsalicylic acid, reference compound]", "values": [{"measurement": "dissolution of atherosclerotic plaque", "setting": "about 12% by weight in the chemical composition, about 88% base composition", "value": "showed effectiveness in dissolving atherosclerotic plaque; also recorded: dissolution of atherosclerotic plaque was noted"}]}
{"compound": "S=C=S", "note": "[carbon disulfide]", "values": [{"measurement": "dissolution of atherosclerotic plaque", "setting": "[2]", "value": "showed effectiveness in dissolving atherosclerotic plaque; also recorded: dissolution of atherosclerotic plaque was noted"}]}
{"compound": "ClC(Cl)Cl", "note": "[chloroform]", "values": [{"measurement": "dissolution of atherosclerotic plaque", "setting": "about 95% by weight, about 5% base composition", "value": "showed effectiveness in dissolving atherosclerotic plaque; also recorded: dissolution of atherosclerotic plaque was noted"}]}
{"compound": "Oc1ccc(/C=C\\c2cc(O)cc(O)c2)cc1", "note": "[cis-resveratrol]", "values": [{"measurement": "dissolution of atherosclerotic plaque", "setting": "[3]", "value": "dissolution of atherosclerotic plaque was noted"}]}
{"compound": "C=C(C)[C@H]1CC=C(C)CC1", "note": "[d-limonene]", "values": [{"measurement": "dissolution of atherosclerotic plaque", "setting": "[1]", "value": "showed effectiveness in dissolving atherosclerotic plaque; also recorded: dissolution of atherosclerotic plaque was noted"}]}
{"compound": "ClCCl", "note": "[dichloromethane]", "values": [{"measurement": "dissolution of atherosclerotic plaque", "setting": "about 92% by weight, about 8% base composition", "value": "showed effectiveness in dissolving atherosclerotic plaque"}, {"measurement": "dissolution of atherosclerotic plaque", "setting": "about 99.1% by weight, about 0.9% base composition", "value": "dissolution of atherosclerotic plaque was noted"}]}
{"compound": "CCO", "note": "[ethanol]", "values": [{"measurement": "dissolution of atherosclerotic plaque", "setting": "about 94% by weight, about 6% base composition", "value": "dissolution of atherosclerotic plaque was noted"}, {"measurement": "effectiveness in dissolving atherosclerotic plaque", "setting": "concentration of about 94% to about 96%", "value": "showed effectiveness in dissolving atherosclerotic plaque"}]}
{"compound": "O=C1[C@H](CC[C@H](O)c2ccc(F)cc2)[C@@H](c2ccc(O)cc2)N1c1ccc(F)cc1", "note": "[ezetimibe, reference compound]", "values": [{"measurement": "dissolution of atherosclerotic plaque", "setting": "[4]", "value": "dissolution of atherosclerotic plaque was noted"}]}
{"compound": "O=C(O)[C@H](O)[C@@H](O)[C@H](O)[C@H](O)CO", "note": "[gluconic acid]", "values": [{"measurement": "dissolution of atherosclerotic plaque", "setting": "about 80% by weight, about 20% base composition", "value": "dissolution of atherosclerotic plaque was noted"}]}
{"compound": "OCC(O)CO", "note": "[glycerine]", "values": [{"measurement": "dissolution of atherosclerotic plaque", "setting": "about 100% by weight in the chemical composition", "value": "showed effectiveness in dissolving atherosclerotic plaque; also recorded: dissolution of atherosclerotic plaque was noted"}]}
{"compound": "CC(O)C(=O)O", "note": "(centres unmarked) [lactic acid]", "values": [{"measurement": "dissolution of atherosclerotic plaque", "setting": "[1]", "value": "dissolution of atherosclerotic plaque was noted"}]}
{"compound": "CCCCCCCCCCCC[N+](C)(C)CC(O)CS(=O)(=O)[O-]", "note": "(centres unmarked) [lauryldimethyl hydroxysultaine]", "values": [{"measurement": "dissolution of atherosclerotic plaque", "setting": "[2]", "value": "dissolution of atherosclerotic plaque was noted"}]}
{"compound": "CO", "note": "[methanol]", "values": [{"measurement": "dissolution of atherosclerotic plaque", "setting": "[5]", "value": "showed effectiveness in dissolving atherosclerotic plaque; also recorded: dissolution of atherosclerotic plaque was noted"}]}
{"compound": "CCCCCCCC(=O)O", "note": "[octanoic acid]", "values": [{"measurement": "dissolution of atherosclerotic plaque", "setting": "[1]", "value": "showed effectiveness in dissolving atherosclerotic plaque; also recorded: dissolution of atherosclerotic plaque was noted"}]}
{"compound": "CC(O)CO", "note": "(centres unmarked) [propylene glycol]", "values": [{"measurement": "dissolution of atherosclerotic plaque", "setting": "[5]", "value": "showed effectiveness in dissolving atherosclerotic plaque; also recorded: dissolution of atherosclerotic plaque was noted"}]}
{"compound": "Oc1ccc(/C=C/c2cc(O)cc(O)c2)cc1", "note": "[resveratrol, 3,5,4′-trihydroxy-trans-stilbene]", "values": [{"measurement": "effectiveness in dissolving atherosclerotic plaque", "setting": "dissolved in water or an organic solvent in a concentration of about 0.1% to about 99.9%", "value": "showed effectiveness in dissolving atherosclerotic plaque"}]}
{"compound": "CC(C)c1nc(N(C)S(C)(=O)=O)nc(-c2ccc(F)cc2)c1/C=C/[C@@H](O)C[C@@H](O)CC(=O)O", "note": "[rosuvastatin, reference compound]", "values": [{"measurement": "dissolution of atherosclerotic plaque", "setting": "[4]", "value": "dissolution of atherosclerotic plaque was noted"}]}
{"compound": "Cc1ccccc1", "note": "[toluene]", "values": [{"measurement": "dissolution of atherosclerotic plaque", "setting": "about 40% by weight, about 60% base composition", "value": "showed effectiveness in dissolving atherosclerotic plaque; also recorded: dissolution of atherosclerotic plaque was noted"}]}
{"compound": "Oc1ccc(/C=C/c2cc(O)cc(O)c2)cc1", "note": "[trans-resveratrol]", "values": [{"measurement": "dissolution of atherosclerotic plaque", "setting": "[3]", "value": "dissolution of atherosclerotic plaque was noted"}]}
